Source: US10975352B2, “Methods of enhancing cell survival of stem cells” (The Scripps Research Institute, priority 2008, dated 2021)

Key:
hESCs [1] = assay: ALP positive colony formation / low-density survival assay of dissociated hESCs on Matrigel; type: cell-based, human; details: adherent culture (e.g. Matrigel-coated plate)
Procedure: Human ESC lines H1, HUES7 and HUES9 were cultured on irradiated MEF feeder cells in DMEM-F12 supplemented with 2 mM L-glutamine, lx nonessential amino acids, 20% serum replacement (Invitrogen) and 10 ng/ml basic Fibroblast growth factor (Invitrogen). Chemically-defined and feeder-free hESC culture was described previously (Yao, S. et al., Proc Natl Acad Sci USA 103 (18):6907-6912 (2006)). Briefly, hESCs were grown on Matrigel-coated tissue culture plates in N2B27-CDM (DMEM-F12 supplemented with 1×N2 supplements, lx B27 supplements, 2 mM L-glutamine, 0.11 mM 2-mercaptoethanol, lx nonessential amino acids, and 0.5 mg/ml BSA (fraction V)) and 20 ng/ml bFGF. Human ESCs were passaged every 5-6 days with 0.05% trypsin.
For clonal survival assays, single hESCs were diluted to clonal density and plated onto 96-well Matrigel-coated plate. For low-density survival assays, 500 cells were plated onto 96-well Matrigel-coated plate. To visualize hESC colonies, cultures were fixed in 4% paraformaldehyde in PBS for 5 min, washed once in PBS, then stained for alkaline phosphatase activity as described in manufacturer's instructions. ALP positive colonies were counted on an inverted microscope.
ALP detection kit and integrin antibodies were from Chemicon. AG825 (Erb2 inhibitor), AG1478 (EGFR inhibitor), PPP (IGFR1 inhibitor) were purchased from Calbiochem. Antibodies raised against the intracytoplasmic tail of E-cadherins (Transduction Laboratories, Lexington, Ky.) were used for immunoprecipitation. The antibody TS2/16 was from Pierce. Antibodies to the extracellular domain of E-cadherin molecule were from Zymed (Carlsbad). Antibodies against extracellular signal-regulated kinase/MAPK, EGFR1, ERB2, GADPH and phosphorylated form of AKT were from Cell Signaling. Mouse monoclonal anti-phosphotyrosine (4G-10 clone) was from Upstate Biotechnology. Ptn and Tzv were added to culture medium at 2 μM. […]

E-cadherin [2] = assay: Endocytosis assay; type: cell-based, human
Procedure: hESCs were incubated with 1.5 mg/ml sulfosuccinimidyl 2-(biotinamido) ethyl-dithioproprionate (sulfo-NHS-SS-biotin) (Pierce Chemical Co.) on ice, followed by washing and quenching. Endocytosis of E-cadherin was initiated by Ca^2+ depletion and 37° C. incubation. Cells were then incubated in two 20-min washes of glutathione solution (60 mM glutathione, 0.83 M NaCl, with 0.83 M NaOH and 1% BSA added before use) at 0° C. which removed all cell surface biotin groups. Remaining biotinylated proteins were sequestered inside cells by endocytosis and were therefore protected from glutathione stripping. Biotinylated proteins were recovered on streptavidin beads and analyzed by SDS-PAGE. E-Cadherins were detected by immunoblotting. Total level of surface E-cadherin before endocytosis was used as reference.

hESCs [3] = assay: Cell adhesion assay; type: cell-based, human
Procedure: Cell adhesion assays were performed in 96-well microtiter plates coated with Matrigel. After trypsin, hESCs were resuspended in the chemically-defined media containing the desired compounds. Cells were then added to the microtiter wells and incubated for 3 h at 37° C. Unbound and loosely bound cells were removed by shaking and washing, and the remaining cells were then fixed immediately. The wells were washed 3 times with 200 μl of H2O, and attached cells were stained with Crystal Violet (Sigma). The absorbance of each well at 570 nm was then measured. For experiments with blocking antibodies, cells were pre-incubated with antibodies on ice for 30 min, and adhesion assays were performed in the presence of antibodies. Each sample was assayed independently for three times.

E-cadherin [4] = assay: E-cadherin expression in hESCs after trypsin dissociation (Western blot, flow cytometry, RT-PCR); type: cell-based, human
Text: We then examined E-cadherin expression in hESCs after trypsin dissociation. […] This observation was consistent with the report that the extracellular region of E-cadherin has an endoproteolytic cleavage site near the transmembrane domain (Damsky, C. H. et al., Cell 34 (2):455-466 (1983)). […] Therefore, Tzv is likely to affect cell adhesion by modulating cell surface level of E-cadherins. […] It is likely that Tzv exerts its effect through stabilization of E-cadherin on the cell surface.
To assess the expression of E-cadherin, activated integrin and SSEA4, dissociated cells (3×10^5) were washed with PBS and resuspended in PBS containing 2% goat serum. Cells were then incubated with the appropriate antibody for 1 h at 4° C., washed with the blocking solution, and labeled with FITC-conjugated secondary antibody for 30 min at 4° C. Cells were then washed and analyzed on a FACS Calibur flow cytometer.

[5] = test system: mouse P1 cortical explants; assay: Axon outgrowth from mouse P1 cortical explants; type: cell-based; details: 3 μM; added 20 minutes after plating; 4 days in culture; DMSO control
Procedure: Compounds of formula I and III (i.e., Tvz and Ptn) are effective at promoting axonal regeneration and functional recovery in injured central nervous system. […] Tzv (3 μM) was tested on mouse P1 cortical explants, with axon outgrowth as an outcome read-out. Tzv was added to the medium 20 minutes after plating, with DMSO as a control. […] Accordingly, in some embodiments, a compound of the present invention is administered to an individual having a central nervous system injury or who is in need or would otherwise benefit from axonal regeneration.

stem cells = assay: Survival and anti-differentiation of stem cells ex vivo; type: cell-based; details: human and mouse embryonic, neural, skin, mesenchymal, hematopoietic, stromal and epithelial stem cells; contact immediately after isolation
Text: In some embodiments, the invention provides methods of promoting survival and anti-differentiation in stem cells ex-vivo.

hESCs [6] = assay: Karyotyping (G-banding) of long-term expanded hESCs; type: cell-based, human; details: more than 20 generations; chemically-defined medium
Procedure: Teratoma formation experiments were performed by injecting 3-5 million hESCs (maintained in the presence of compounds Tvz or Ptn) under the kidney capsule of nude mice. After 4-5 weeks, all mice developed teratomas, which were removed and then immunohistologically analyzed by The Scripps Research Institute Research Histology Service and Animal Resources. Compounds treated cells were karyotyped by standard G-banding at the Children's Hospital Oakland, Cytogenetics Laboratory. No chromosomal abnormality was found in the 10 randomly picked nuclei.

What does the source list for `O=C(NCc1ccccc1)c1csc(Nc2ccncn2)n1` [Tzv, N-benzyl-2-(pyrimidin-4-ylamino)thiazole-4-carboxamide]?
survival of dissociated hESCs in adherent culture (hESCs [1]): greatly improved survival; internalization of E-cadherins (E-cadherin [2]): significantly blocked; adhesion of dissociated hESCs to Matrigel or laminin (hESCs [3]): dramatically increased adhesion; adhesion of hESCs to gelatin or poly-lysine (hESCs [3]): not affected; cell surface E-cadherins (E-cadherin [4]; flow cytometry): significantly increased; E-cadherin transcripts vs mock controls (E-cadherin [4]; semiquantitative RT-PCR): comparable amounts; full-length E-cadherin expression after trypsin dissociation (E-cadherin [4]; time-course Western blot): significantly increased; axon outgrowth [5]: dramatic effect in promoting axon outgrowth; survival and anti-differentiation of stem cells (stem cells): effective in promoting survival and anti-differentiation; karyotype of hESCs serially passaged in compound-containing medium (hESCs [6]): normal karyotype
